For data set [1], the system named is p53. In words: p53 acetylation Western blot in U2OS cells. Type of data set: cell-based, human. The following applies: 6 hours, TSA 10 mM. As for the experimental part: U2OS cells were treated with piperlongumine (SP), the HDAC inhibitor TSA (trichostatin A ([…])) or the control DMSO for 6 hours. Cell extracts were fractionated in SDS-PAGE gel and analyzed by western blot.

For data set [2], the system named is MMTV-PyVT mammary tumor. In words: MMTV-PyVT spontaneous mammary tumor mouse model. In kind it is in vivo. The text has this: MMTV-PvVT (FVB/N-Tg) transgenic mice develop multifocal mammary tumor (from hyperplasia to metastatic) with a high incidence of metastasis (Mice were obtained from the NCI repository). This mouse model has been widely used for the correlation studies of human cancer (Guy et al., Moll. Cell. Biol. 12: 954-961, 1992). In addition, this onco-mouse model has been used to evaluate the effectiveness of potential drug therapies. Generally, due to aggressiveness of tumor growth and spread in this mouse-model, only a combination of chemo-drugs is effective in tumor growth inhibition. MMTV-PyVT mice were maintained until mammary tumor size reached to 6 mm, and then piperlongumine (2.4 mg/kg) or vehicle (DMSO) was given daily by i.p. for 13 days. Tumor size was measured every 4 days (See FIGS. 31 and 32).
We compared the anti-tumor activity of piperlongumine (SP2007) with taxol, a well known chemo drug, in the MMTV-PyVT tumor mouse model as described above (8 mice per group). When tumor sizes grew to ˜5-6 mm in diameter, SP2007 (2.4 mg/kg/day) or Taxol (Paclitaxel, 10 mg/kg/day) was administered intraperitoneally (I.P.) daily for two weeks. After two weeks treatment, mice were sacrificed, and mammary tumors excised and the tumor sizes measured. […] The size of the grossly dissected tumors was measured using the formula: mean diameter=(A+B)/2.

The test system of data set [3] is immortalized human breast epithelial cells. In words: DNA damage markers in immortalized human breast epithelial cells. Type of data set: cell-based. The following applies: taxol 10 nM. The text has this:
(§1) The conditions and time of exposure are indicated in the legend of the figure.

Data set [4] concerns EJ bladder carcinoma cells. In words: Persistent effects after removal of the compound in EJ cells. In kind it is cell-based, human. The following applies: 3 hrs treatment, washed, another 6 hrs in medium without compound. On the procedure: EJ bladder carcinoma cells were treated with SP2007 (P10: 10 μM and P20: 20 μM), taxol (T10: 10 nM and T20: 20 nM) or DMSO vehicle control for either 20 hrs or 3 hrs. For the 20 hrs experiment, the percentages of remaining living cells ware measured on the end of the 20 hrs treatment time point. […] For the 3 hrs experiment, cells were washed 3 times with PBS after treatment with the and incubated for another 6 hrs in growing medium without SP2007, taxol or DMSO.

Data set [5] concerns EJ bladder carcinoma and U2OS osteosarcoma cell lines. In words: DNA damage in EJ bladder carcinoma and U2OS osteosarcoma cell lines. Type of data set: cell-based, human.
Excerpt: as §1

As for `CC(/C=C/C(=O)NO)=C\[C@@H](C)C(=O)c1ccc(N(C)C)cc1` [TSA, reference compound], the “total amount of p53” value in data set [1] is listed as “did not increase”.
With `CC(=O)O[C@H]1C(=O)[C@@]2(C)[C@H]([C@H](OC(=O)c3ccccc3)[C@]3(O)C[C@H](OC(=O)[C@H](O)[C@@H](NC(=O)c4ccccc4)c4ccccc4)C(C)=C1C3(C)C)[C@]1(OC(C)=O)CO[C@@H]1C[C@@H]2O` [Taxol, reference compound], in data set [2] (SP2007 2.4 mg/kg/day or Taxol 10 mg/kg/day i.p. for two weeks), the secondary tumors result is “moderate and secondary tumors appeared”. The deaths during treatment result in data set [2] (Taxol 10 mg/kg/day i.p. daily for two weeks) is listed as “two of the Taxol-treated mice died at day 10”. In addition, the “phosphorylated gamma-H2AX and p53” value in data set [3] was “results in the induction”. In addition, the “killing of cancer cells after removal of the compound” value in data set [4] was “significantly weakened”.
With `COc1cccc2c1C(=O)c1c(O)c3c(c(O)c1C2=O)C[C@@](O)(C(=O)CO)C[C@@H]3O[C@H]1C[C@H](N)[C@H](O)[C@H](C)O1` [adrimycin, reference compound], the “DNA damage (phosphorylated gamma-H2AX levels)” value in data set [5] is “results in the induction of DNA damage”.

Values taken from patent US20090312373A1, “METHODS FOR THE TREATMENT OF CANCER USING PIPERLONGUMINE AND PIPERLONGUMINE ANALOGS” (The General Hospital Corporation, priority 2008, published 2009).
